Assay results from US20090263492A1, “Diagnostic Methods and Genetic Markers for Alzheimer Disease” (priority 2006, published 2009).
“Also recorded” adds a separate entry of the source.

Key:
Mgat3 transcription = experiment: qPCR of Mgat3 transcription in PBMC's from AD patients cultured with Aβ and test agent; type: cell-based, human; details: for fold induction at 0.1 µM: Homo sapiens, curcumins 0.1 uM, PBMC's from AD patients cultured overnight with Aβ, 2 hours incubation, qPCR, read-out: Relative Activity: relative ratio of Mgat3 transcription in AD/Mgat3 transcription in control cells
Procedure: (§1) RNA Isolation and qPCR. RNA was isolated as above from PBMC's (10 million) of each subject, which were cultured overnight with or without Aβ (2 μg/ml); and cDNA was synthesized using the iSCRIPT cDNA Synthesis Kit. The expression levels of the genes of interest were tested by qPCR on a real-time PCR detector and normalized to the levels of the housekeeping gene 36B4 with the following primers: […]
(§2) SYBR Green reactions were carried out with the IQ SYBR Green mix. Reactions were run on a Continuous Fluorescence detector and analyzed. The relative quantities of the gene tested per sample were calculated against 36B4 using the ΔΔC(T) formula as previously described. The results are expressed as log [MGAT (or TLR) RNA (with Aβ)/MGAT (or TLR) RNA (without Aβ)] for each specimen. For evaluation of curcumins or curcumin analogs the above assay was used. Curcumins (0.1 uM) were added to PBMC's from AD patients cultured overnight with ±Aβ as above. After 2 hours of incubation with the curcumin or analog, RNA was isolated and cDNA was synthesized as above. The expression levels of Mgat3 or TLR transcription was quantified and normalized to the levels of housekeeping genes and compared to cells treated with curcumin or analogs with or without Aβ vs. untreated cells. The amount of Mgat3 (or TLR) RNA with Aβ and test agent/Mgat3 (or TLR) RNA withal alone)] for each cell preparation in the presence of test agent was determined. The ratio was used to determine the potency of the agent tested. Potent compounds had elevated ratios (>1.5) and were used to rank the relative activity of each test agent (Table 2).
Curcumins. […] Crude natural product derived materials (i.e., curcuminoids) enhance phagocytosis of Aβ by macrophages from AD patients in approximately 50% of the cases examined. […] The material was purified to near homogeneity and identified by LCMS as bisdesmethoxycurcumin on the basis of its molecular ion and fragmentation pattern. To verify the biological activity of this minor constituent, bisdesmethoxycurcumin was chemically synthesized and tested in the phagocytosis and transcription assays described above (see Example 4). Compared with curcumin, both the bisdesmethoxycurcumin material isolated by chromatography and the chemically synthesized bisdesmethoxycurcumin material optimally stimulated phagocytosis at 0.1 μM. To determine whether functional improvement would be accompanied by biochemical changes, we tested transcriptional up-regulation of MGA T3 and TLR's in PBMC's from AD patients and controls in the presence of Aβ with bisdesmethoxycurcumin (0.1 μM) in comparison to Aβ alone. […] Thus, curcumins (0.1 uM) were added to PBMC's from AD patients cultured overnight with Aβ as above. After 2 hours of incubation, RNA was isolated and cDNA was synthesized. The expression levels of Mgat3 or TLR transcription was quantified and normalized to the levels of housekeeping genes and compared to cells treated with curcumin or analogs without Aβ. The amount of Mgat3 (or TLR) RNA with test agent and Aβ)/Mgat3 (or TLR) RNA (with Aβ alone)] for each cell preparation in the presence of test agent was determined. The ratio was used to determine the potency of the agent tested. Potent compounds had elevated ratios (>1.5) and were used to rank the relative activity (Table 2).
Mgat3 and TLR transcription in cells from AD and control patients. We tested by qPCR Mgat3 and/0or TLR transcription in cells from AD patients and compared the results to those obtained from age-matched controls (Table 2). As discussed above, activation or up-regulation of macrophage Mgat3 or TLR's results in many functional outcomes, including the enhancement of […] and removal of Aβ, increased apoptosis, secretion of inflammatory cytokines, and other anti-AD antimicrobial activities. […] Thus, the ratio of Mgat3 or TLR transcription upon Aβ stimulation of AD versus control PBMCs provides an indicator and sensitive method to test the in vitro efficacy of drug candidates. […]

[1] = tested on: Toll-like receptor (TLR) RNA's (TLR1-10); experiment: qPCR of TLR transcription in PBMC's from AD patients cultured with Aβ and test agent; type: cell-based, human; details: for up-regulation of TLR1-10 RNA: PBMCs from one AD patient (patient D, FIG. 1), Aβ plus agent overnight
Procedure: 10 million PBMC's each of four AD patients (A, B, C, D) were treated overnight with no addition, Aβ (A, B, C, D; black bars) or with Aβ and bisdemethoxycurcumin (D, striped bar). Control subjects's (M, N, O) PBMC's were treated with no addition or Aβ (open bars). RNA was extracted and tested by qPCR, and the TLR ratio was determined as described in the Methods. The significance of differences between patients and controls (by Mann-Whitney test) are: TLR1 0.05; TLR2 0.05; TLR3 0.05; TLR4 0.08; TLR5 0.05; TLR6 0.077; TLR7 0.08; TLR8 0.05; TLR9 0.08; TLR10 0.05. The graphs show changes in receptors on 2-fold (log 2) scale.
as §1
as §2, with “Curcumins (0.1 uM) were added to PBMC's from AD patients cultured overnight with ±Aβ as above. After 2 hours of incubation with the curcumin or analog, RNA was isolated and cDNA was synthesized as above.” left out, “The ratio was used to determine the potency of the agent tested. Potent compounds had elevated ratios (>1.5) and were used to rank the relative activity of each test agent (Table 2).” left out
Curcumins. […] The expression levels of Mgat3 or TLR transcription was quantified and normalized to the levels of housekeeping genes and compared to cells treated with curcumin or analogs without Aβ. […]

[2] = tested on: macrophages of AD patients; experiment: Phagocytosis of FITC-amyloid-beta (1-42) by macrophages of AD patients; type: cell-based, human; details: for effect on Aβ phagocytosis/uptake by AD macrophages: in vitro treatment during Aβ phagocytosis, fluorescence/confocal microscopy
Description: (§3) Peripheral blood mononuclear cells (PBMC's) and macrophages. AD patients were recruited at the time of enrollment in a double-blind study of curcumin Complex 3 in progress at UCLA. The diagnostic criteria for AD satisfied the National Institute of Neurological and Communicative Disorders and the AD and Related Disorders Association criteria for probable Alzheimer's disease. Normal age-matched control subjects were recruited. PBMC's were isolated by the Ficoll Hypaque gradient technique from venous blood. To prepare macrophage slide cultures, 50,000 PBMC's were cultured in each well of an 8-chamber polystyrene vessel glass slide in Iscove's medium with 10% autologous serum until differentiated into adherent macrophages (7-14 days).
Phagocytosis assay and confocal microscopy. Macrophages were exposed to FITC-amyloid-beta (1-42) (2 μg/ml) overnight, fixed with 4% paraformaldehyde, permeabilized with 0.1% Triton X-100, blocked with 1% BSA in PBS and stained with Rab 5 or EEA1 antibodies by indirect immunofluorescence; lysosomes were stained intravitally by the Lyso-Tracker probe; macrophages were stained using anti-CD68; neurons were stained using anti-NeuN. The preparations were examined using fluorescence and confocal microscopy.
Ability of monocytes to clear Aβ in the brain. Co-culture of freshly isolated monocytes with sections of AD frontal lobe to test the ability of monocytes to clear Aβ in the brain was done. One third of control monocytes became saturated with Aβ in 2 days and 100% in 4 days. […] Apoptosis of macrophages treated with Aβ was done with the SR-VAD-FMK polycaspase assay. Differentiated macrophages were treated with curcuminoids or analogs in the medium overnight and were then exposed to FITC-Aβ (1-42) to 2.5 μg/ml, incubated for 24 or 48 h and examined by fluorescence or confocal microscopy.
Curcuminoids reverse defective phagocytosis of amyloid-beta by macrophages of individual AD patients. […] Macrophages were visualized using anti-CD68 or fluorescent phalloidin with a fluorescence microscope.

[3] = tested on: TLR2, TLR3 and TLR4 on monocytes; experiment: Flow cytometry of TLR expression on monocytes of PBMCs from an AD patient; type: cell-based, human
control macrophages = experiment: Phagocytosis / uptake of FITC-Aβ by control macrophages; type: cell-based, human; details: Example 5; control or AD macrophages not specified
Description: as §3
Phagocytosis assay and confocal microscopy. […] The preparations were examined using fluorescence and confocal microscopy. […]
Curcuminoids reverse defective phagocytosis of amyloid-beta by macrophages of individual AD patients. […] Macrophages were visualized using anti-CD68 or fluorescent phalloidin with a fluorescence microscope. […]

[4] = 0.1 μM, PBMC's from AD patients

Question: Which “transcription of MGAT3 with Aβ and agent in comparison to Aβ alone” value (Mgat3 transcription; [4]) does the source give for `O=C(C=Cc1ccc(O)cc1)C=C(O)C=Cc1ccc(O)cc1` [Compound 5a, 5-Hydroxy-1,7-bis-(4-hydroxy-phenyl)-hepta-1,4,6-trien-3-one] here?
Answer: up-regulated in all four patients examined

Question: And the fold induction at 0.1 µM (Mgat3 transcription)?
Answer: 1.5 to 2

Question: And the “relative Mgat3 ratios” value (Mgat3 transcription; repeat assays)?
Answer: 3-5 fold

Question: And the “transcription of TLRs with Aβ and agent in comparison to Aβ alone” value [1, 4]?
Answer: up-regulated in all four patients examined

Question: What about the “up-regulation of TLR1-10 RNA” value ([1]; listed as Bisdemethoxycurcumin) of the same molecule?
Answer: all 10 TLRs were up-regulated

Question: And the “up-regulation of TLR1-10 RNA” value ([1]; listed as bisdemethoxycurcumin)?
Answer: up-regulation

Question: And the “effect on Aβ phagocytosis/uptake by AD macrophages” value ([2]; listed as bisdemethoxycurcumin)?
Answer: enhanced the phagocytosis of Aβ by macrophages of AD patients; also recorded: considerable activity

Question: What about the “concentration that optimally stimulated phagocytosis” value ([2]; isolated and chemically synthesized material, compared with curcumin) of the same molecule?
Answer: 0.1 µM

Question: What about the “expression of TLR2, TLR3 and TLR4 on monocytes” value [3] of the same molecule?
Answer: increased expression

Question: For “IGF-1: the hormone insulin-like growth factor (IGF-I)”, which “effect on Aβ phagocytosis/uptake by AD macrophages” value [2] is on record?
Answer: improves Aβ phagocytosis

Question: Which “block of uptake of Aβ” value (control macrophages) does the source give for Fucoidan here?
Answer: did not block uptake of Aβ

Question: What does the source list for `COc1ccc(C=CC(=O)C=C(O)C=Cc2ccc(OC)c(O)c2)cc1O` [Compound 5g, 5-Hydroxy-1,7-bis-(3-hydroxy-4-methoxy-phenyl)-hepta-1,4,6-trien-3-one]?
Answer: fold induction at 0.1 µM (Mgat3 transcription): 1 to 1.5; melting point: 182.8 °C
